Each compound was assayed on pAMPK (assay: pAMPK immunostaining chemiluminescence assay in Beas2B cells). Conditions: Homo sapiens, BEAS-2B, 18 h, DMEM no glucose media, compounds 3-34, 36-44, 47-60 tested as HCl salts, read-out: efficacy (minimal compound concentration needed to increase pAMPK by 30%).
Assay type: cell-based
Protocol: Beas2B cells were plated in 384 white nunc plate (4000 cells per well) for overnight. Compounds were serially diluted in DMEM no glucose media using the liquid handler. Cells were washed once using Biotek EL406 before compound addition for additional 18 hours. Cells were washed and fixed with PFA before immunostained with pAMPK primary antibody and anti-Rabbit HRP secondary antibody. Finally, 25 μl of ECL reagent will be added to cells, and chemical luminescence signal will be counted using plate reader. Compounds efficacies (μM) were determined by the minimal compound concentration needed to increase pAMPK by 30%. Activity: “+” equals >10 μM; “++” equals between ≤10 μM and >1 μM; and “+++” equals ≤1 μM.

Structure (SMILES)	EC (30% increase) [µM]
O[C@@H](COc1ccc(C(F)(F)F)cc1)CN(Cc1ccccc1)Cc1ccccc1 [compound 1]	1 to 10
O[C@H](COc1ccc(C(F)(F)F)cc1)CN(Cc1ccccc1)Cc1ccccc1 [compound 2]	1 to 10
OC(COc1ccc(C(F)(F)F)cc1)CN(CC1CCCCC1)CC1CCCCC1 (stereo not shown) [compound 3]	1 to 10
Cc1ccccc1CN(Cc1ccccc1C)CC(O)COc1ccc(C(F)(F)F)cc1 (stereo not shown) [compound 4]	≤ 1
Cc1ccccc1CN(Cc1ccccc1)CC(O)COc1ccc(C(F)(F)F)cc1 (stereo not shown) [compound 5]	1 to 10
OC(COc1ccc(C(F)(F)F)cc1)CN(CCc1ccccc1)Cc1ccccc1 (stereo not shown) [compound 6]	1 to 10
OC(COc1ccc(C(F)(F)F)cc1)CN(Cc1cccnc1)Cc1cccnc1 (stereo not shown) [compound 7]	≤ 1
Cc1ccccc1CN(Cc1cccnc1)CC(O)COc1ccc(C(F)(F)F)cc1 (stereo not shown) [compound 8]	≤ 1
OC(COc1cccnc1)CN(Cc1ccccc1)Cc1ccccc1 (stereo not shown) [compound 9]	> 10
OC(COc1ccccn1)CN(Cc1ccccc1)Cc1ccccc1 (stereo not shown) [compound 10]	1 to 10
CN(CC(O)COc1ccc(C(F)(F)F)cc1)CC(c1ccccc1)c1ccccc1 (stereo not shown) [compound 11]	1 to 10
CC(CNCC(O)COc1ccc(C(F)(F)F)cc1)(c1ccccc1)c1ccccc1 (stereo not shown) [compound 12]	1 to 10
OC(COc1ccc(C(F)(F)F)cc1)CN(Cc1ccccc1)Cc1cncnc1 (stereo not shown) [compound 13]	≤ 1
OC(CNCC(c1ccccc1)c1ccccc1)COc1ccc(C(F)(F)F)cc1 (stereo not shown) [compound 14]	> 10
OC(COc1ncccn1)CN(Cc1ccccc1)Cc1ccccc1 (stereo not shown) [compound 15]	> 10
OC(COc1cncnc1)CN(Cc1ccccc1)Cc1ccccc1 (stereo not shown) [compound 16]	1 to 10
OC(COc1ccncc1)CN(Cc1ccccc1)Cc1ccccc1 (stereo not shown) [compound 17]	> 10
Cc1cccc(C)c1OCC(O)CN(Cc1ccccc1)Cc1ccccc1 (stereo not shown) [compound 18]	≤ 1
OC(COc1ccc(C(F)(F)F)cc1)CN1Cc2ccccc2C1 (stereo not shown) [compound 19]	> 10
OC(COc1ccc(C(F)(F)F)cc1)CN1Cc2ccccc2CC1c1ccccc1 (stereo not shown) [compound 20]	1 to 10
OC(COc1ccc(C(F)(F)F)cc1)CN1Cc2ccccc2C1c1ccccc1 (stereo not shown) [compound 22]	1 to 10

Structure (SMILES)	EC (30% increase) [µM]
Cc1ccccc1CN(Cc1cncnc1)CC(O)COc1ccc(C(F)(F)F)cc1 (stereo not shown) [compound 23]	≤ 1
Cc1ccccc1CN(Cc1cccnc1)CC(O)COc1ccc(C(F)(F)F)cn1 (stereo not shown) [compound 24]	> 10
OC(COc1ccc(C(F)(F)F)cc1)CN(Cc1cccnc1)Cc1ccccc1Cl (stereo not shown) [compound 25]	≤ 1
Cc1ncccc1CN(Cc1ccccc1)CC(O)COc1ccc(C(F)(F)F)cc1 (stereo not shown) [compound 26]	≤ 1
Cc1ccncc1CN(Cc1ccccc1)CC(O)COc1ccc(C(F)(F)F)cc1 (stereo not shown) [compound 27]	≤ 1
Cc1ncccc1CN(Cc1cccnc1)CC(O)COc1ccc(C(F)(F)F)cc1 (stereo not shown) [compound 28]	≤ 1
Cc1ccncc1CN(Cc1cccnc1)CC(O)COc1ccc(C(F)(F)F)cc1 (stereo not shown) [compound 29]	≤ 1
Cc1ncccc1CN(Cc1cccnc1C)CC(O)COc1ccc(C(F)(F)F)cc1 (stereo not shown) [compound 30]	1 to 10
Cc1ccncc1C1OC(COc2ccc(C(F)(F)F)cc2)CN1Cc1cccnc1 (stereo not shown) [compound 31]	1 to 10
Cc1ccncc1CN(Cc1cccnc1C)CC(O)COc1ccc(C(F)(F)F)cc1 (stereo not shown) [compound 32]	≤ 1
Cc1ccncc1CN(Cc1cnccc1C)CC(O)COc1ccc(C(F)(F)F)cc1 (stereo not shown) [compound 33]	1 to 10
O=C(CCOc1ccc(C(F)(F)F)cc1)N(Cc1ccccc1)Cc1ccccc1 [compound 35]	1 to 10
Cc1ccccc1CN(Cc1ncc[nH]1)CC(O)COc1ccc(C(F)(F)F)cc1 (stereo not shown) [compound 36]	≤ 1
Cc1ccccc1CN(Cc1cc[nH]n1)CC(O)COc1ccc(C(F)(F)F)cc1 (stereo not shown) [compound 37]	1 to 10
Cc1ccccc1CN(Cc1cnn(C)c1)CC(O)COc1ccc(C(F)(F)F)cc1 (stereo not shown) [compound 38]	1 to 10
Cc1ccccc1CN(Cc1cnc[nH]1)CC(O)COc1ccc(C(F)(F)F)cc1 (stereo not shown) [compound 39]	1 to 10
Cc1ccccc1CN(Cc1cncs1)CC(O)COc1ccc(C(F)(F)F)cc1 (stereo not shown) [compound 40]	≤ 1
OC(COc1ccc(C(F)(F)F)cc1)CN(Cc1ccncc1)Cc1ccncc1 (stereo not shown) [compound 41]	1 to 10
OC(COc1ccc(C(F)(F)F)cc1)CN(Cc1ccccn1)Cc1ccccn1 (stereo not shown) [compound 42]	≤ 1
OC(COc1ccc(C(F)(F)F)cc1)CN(Cc1ccccc1)Cc1cccnc1 (stereo not shown) [compound 43]	≤ 1
Cc1ccccc1CN(Cc1ccc(C(F)(F)F)nc1)CC(O)COc1ccc(F)cc1 (stereo not shown) [compound 44]	≤ 1

Structure (SMILES)	EC (30% increase) [µM]
Cc1ccccc1CN(CC(O)COc1ccc(C(F)(F)F)cc1)C(=O)c1cccnc1 (stereo not shown) [compound 45]	≤ 1
CC(c1cccnc1)N(Cc1ccccc1)CC(O)COc1ccc(C(F)(F)F)cc1 (stereo not shown) [compound 46]	≤ 1
[2H]C([2H])(c1cccnc1)N(Cc1ccccc1)CC(O)COc1ccc(C(F)(F)F)cc1 (stereo not shown) [compound 47]	≤ 1
OC(COc1ccc(C(F)(F)F)cc1)CN(Cc1ccccc1)C1(c2cccnc2)CC1 (stereo not shown) [compound 48]	≤ 1
Cc1ccccc1CN(Cc1cccc(C(N)=O)c1)CC(O)COc1ccc(C(F)(F)F)cc1 (stereo not shown) [compound 49]	1 to 10
Cc1ccccc1CN(Cc1cccc(C#N)c1)CC(O)COc1ccc(C(F)(F)F)cc1 (stereo not shown) [compound 50]	> 10
Cc1ccccc1CN(Cc1ccc[n+]([O-])c1)CC(O)COc1ccc(C(F)(F)F)cc1 (stereo not shown) [compound 51]	1 to 10
Cc1ccccc1CN(CCc1ccccn1)CC(O)COc1ccc(C(F)(F)F)cc1 (stereo not shown) [compound 52]	1 to 10
Cc1ccccc1CN(CC(O)COc1ccc(C(F)(F)F)cc1)c1cccc2ncccc12 (stereo not shown) [compound 54]	1 to 10
Cc1ccccc1CN(CC(O)COc1ccc(C(F)(F)F)cc1)c1cccnc1 (stereo not shown) [compound 55]	1 to 10
OC(COc1ccc(C(F)(F)F)cc1)CN1Cc2ccccc2CC1c1cccnc1 (stereo not shown) [compound 56]	≤ 1
OC(COc1ccc(C(F)(F)F)cc1)CC1=Nc2ccccc2CC1c1cccnc1 (stereo not shown) [compound 57]	1 to 10
Cc1ccccc1CN(Cc1ccc(=O)[nH]c1)CC(O)COc1ccc(C(F)(F)F)cc1 (stereo not shown) [compound 59]	1 to 10
c1ccc(CN(CCCOc2ccccc2)Cc2ccccc2)cc1 [compound 61]	1 to 10
O=C(CCOc1ccc(C(F)(F)F)cc1)N1Cc2ccccc2CC1c1cccnc1 (stereo not shown) [compound 62]	1 to 10
Cc1ccccc1CN(Cc1cccnc1)C(=O)CCOc1ccc(C(F)(F)F)cc1 [compound 64]	1 to 10
FC(F)(F)c1ccc(OCCCN2Cc3ccccc3CC2c2cccnc2)cc1 (stereo not shown) [compound 65]	≤ 1
Cc1ccccc1CN(CC(O)COc1ccc(C(F)(F)F)cc1)C(=O)c1ccccc1 (stereo not shown) [compound 66]	≤ 1
Cc1ccc(C(=O)N(Cc2ccccc2C)CC(O)COc2ccc(C(F)(F)F)cc2)cc1 (stereo not shown) [compound 67]	≤ 1

Reference: patent US12428378B2, “Methods and materials for increasing level of phosphorylated AMPK protein” (University of Pittsburgh—Of the Commonwealth System of …, priority 2019, dated 2025)
